Assays:
PLC-γ1 and PLC-γ2 = test: Phosphorylation of PLC-γ1 and PLC-γ2 in mast cells; format: cell-based
From the text: To examine the functional similarities with G4G11, the inventors explored the biological effects of C-13 on mast cell activation. […] Similarly to the intrabody G4G11, C-13 inhibited the phosphorylation and FcεRI-induced kinase activity of Btk (FIG. 2A) and the phosphorylation of PLC-γ1 and PLC-γ2, the two PLC-γ isoforms expressed in mast cells (FIGS. 2A, C). PTK Lyn phosphorylates both Syk and Btk giving rise to the complete activation thereof and the subsequent phosphorylation of PLC-γ^18.
(§1) • 1) Chemical products and antibodies. A chemical bank of 3000 molecules (a varied subset) was acquired from ChemBridge, Inc. (San Diego, Calif.). Stocks of solutions of small molecules were prepared at a rate of 10 mM in DMSO (dimethylsulphoxide), except for C-13 (methyl 2-{5-[(3-benzyl-4-oxo-2-thioxo-1,3-thiazolidin-5-ylidene)methyl]-2-furyl}benzoate, ChemBridge ID No. 6197026) prepared in DMF (dimethylformamide). […] The binding of G4G11 with Syk was assessed by adding the 9E10 monoclonal antibody conjugated with HRP detecting the amino acid sequence EQKLISEEDLN of human c-myc protein located at the C-terminal end of the scFv fragment. To generate Syk mutants, targeted mutagenesis was used on GST:Syk 6-242 protein and the binding of G4G11 with the mutants was assessed in the presence of 5 μM of C-13. • 3) Cells, culture conditions and functional tests. […]

BALB/c mice = test: Passive cutaneous anaphylaxis (PCA); format: in vivo; design: unit not given here; conditions: local intradermal injection in the ear
Procedure: Finally, to extend these observations to mast cell functions in vivo, the inventors tested the effects of C-13 on passive systemic (PSA) and cutaneous anaphylaxis (PCA) induced in BALB/c mice by administering DNP-specific IgE molecules followed by intravenous stimulation with DNP-KLH hapten. […] The intensity of systemic anaphylaxis was determined by measuring both the drop in body temperature and the increase in vascular permeability following antigen administration.
as §1, with “(dimethylformamide). Unless specified otherwise, all the reagents were supplied by Sigma.” for “(dimethylformamide).”

## COC(=O)c1ccccc1-c1ccc(/C=C2/SC(=S)N(Cc3ccccc3)C2=O)o1 [Molecule C-13, methyl 2-{5-[(3-benzyl-4-oxo-2-thioxo-1,3-thiazolidin-5-ylidene)methyl]-2-furyl}benzoate]
PLC-γ1 and PLC-γ2
  phosphorylation of PLC-γ1 and PLC-γ2: inhibited
BALB/c mice
  estimated IC50, inhibitory effect on PCA: ~25
